The results in this text go back to patent US20250057862A1, “SIALIC ACID COMPOSITIONS FOR USE IN INHIBITING AND TREATING INFECTIONS IN FISH” (LifeScience AS, priority 2021, published 2025).

“Also recorded” adds a separate entry of the source.

Data set [1] is described as follows: Sialic acids in skin and intestinal mucus and plasma of salmon fed 1% Neu5Ac (bioavailability). In kind it is in vivo, Atlantic salmon (Salmo salar). The procedure:
(§1) The example describes additional results obtained from feeding salmon a diet containing 1% Neu5Ac w/w. A feeding and morbidity experiment with Atlantic salmon (Salmo salar) was carried out at the Industrial Laboratory in Bergen (ILAB). The purpose of the trial was to investigate the effect of adding 1% Neu5Ac to feed on growth, certain fish health indicators, and the fish's resistance and welfare when infected with salmon lice and ILA virus, respectively. The trial included six main phases, the last two of which ran parallel with different infectious agents (FIG. 4).
Day 1-8: Acclimatization. Presmolt (approx. 40 g starting weight), freshwater phase. • Bulk weighing of all fish on day 1. • NB: All the fish received exclusively control feed during the acclimatization phase. • Day 8: First sampling. Day 9-41: Growth and preparation for smoltification, freshwater phase. • Different diets started (and continued) from day 9 onwards. • Light regime changed from 12:12 light/dark to 24 hours light on day 15. • Bulk weighing of fish on day 25. • Temperature increased from 12 to 14 degrees on day 28. • Smoltification starts in response to changed light regime and changed temperature. • Day 36: Second sampling. • Bulk weighing of fish on day 37. Day 42-50: Smoltification, transition and acclimatization to saltwater phase. • From 20 salt water from day 42, full salinity and presumed complete smoltification by day 44. • Day 50: Third sampling. • Day 51-78: Postsmolt, growth in seawater phase. • Growth on different diets, no other manipulations. • Day 78: Fourth sampling. […]
To separate life history effects from a general assessment of bioavailability, the samples from the longest continuous growth phase are first analyzed without experimental manipulations. […]

Data set [2] is described as follows: Growth and condition (weight, length, fitness factor) on 1% Neu5Ac feed. The class given is in vivo, Atlantic salmon (Salmo salar). As to conditions: postsmolt, Day 78. The procedure:
as §1
Day 1-8: Acclimatization. Presmolt (approx. 40 g starting weight), freshwater phase. • Bulk weighing of all fish on day 1. • NB: All the fish received exclusively control feed during the acclimatization phase. • Day 8: First sampling. Day 9-41: Growth and preparation for smoltification, freshwater phase. • Different diets started (and continued) from day 9 onwards. • Light regime changed from 12:12 light/dark to 24 hours light on day 15. • Bulk weighing of fish on day 25. • Temperature increased from 12 to 14 degrees on day 28. • Smoltification starts in response to changed light regime and changed temperature. • Day 36: Second sampling. • Bulk weighing of fish on day 37. Day 42-50: Smoltification, transition and acclimatization to saltwater phase. • From 20 salt water from day 42, full salinity and presumed complete smoltification by day 44. • Day 50: Third sampling. • Day 51-78: Postsmolt, growth in seawater phase. • Growth on different diets, no other manipulations. • Day 78: Fourth sampling. Day 79-94: Infection test—salmon lice • A proportion of the fish were taken out of all test vessels on day 79; anesthetized, marked, collected in a common large vessel and infected with salmon lice. • Bulk weighing of the fish taken out for the lice test. • The experimental fish were then distributed according to original diet group, in two new vessels, for further observation. • Day 94: […], lice test completed. […]

A short description of data set [3]: Example 2 mucosal health of gills and skin after sea lice challenge. The class given is in vivo, Atlantic salmon. As to conditions: fifteen days following challenge with salmon lice; 2 of 3 tanks. The procedure:
An experiment was conducted to determine the mucosal health status of gills, dorsal skin and foregut of Atlantic salmon smolt and postsmolt given sialic acid (NANA) treatment at a single dose (1% in feed) or a control treatment and challenged by sea lice exposure.
Atlantic salmon were reared in the flow-through system of the ILAB facility at 12 C and were reared in freshwater through smoltification to seawater in six tanks, 3 tanks per treatment. The gills and dorsal skin of the fish (n=30 per date, 5 from each replicate tank) were individually sampled on each of the following dates. The foregut of 30 fish was sampled once, while skin samples were not collected on the same date. The samples were processed (buffered formalin fixation, paraffin embedding, sectioned and stained with PAS-AB), digitally scanned and analyzed for mucous cell density (% epithelium filled with mucous cells, A), defense (mucous) cell sizes (mucous cell area, μm^2, D) and defense activity (barrier status, =(1/(A:D))×1000).
The fish were transferred to two large holding tanks and challenged with salmon lice and sampled 15 days later.

Take `CC(=O)N[C@H]1[C@H]([C@H](O)[C@H](O)CO)OC(O)(C(=O)O)C[C@@H]1O` (stereo partly shown) [Neu5Ac, N-acetyl neuraminic acid]: in data set [1] (1% Neu5Ac in feed, salmon, listed as Free Neu5Ac), the “Bioavailability of free Neu5Ac in feed” value is on record as “bioavailable; also recorded: biologically available”. Besides, in data set [1] (postsmolt, Day 78), the “Free Neu5Ac in the intestinal mucosa vs control diet” value is “highly significant” and the “Total Neu5Ac in the intestinal mucosa vs control diet (elevated level)” value is “weakly significant”. Besides, in data set [2], the “% Increase in fitness (condition) factor vs control” value turned out to be 19%, the “% Increase in length vs control” value was 5% and the “% Increase in weight vs control” value stood at 22%. In addition, in data set [3], the “Gill mucous cell size after challenge” value was “not significantly reduced”.
